# Values joined by “and” are separate entries in the source; they are usually repeats but may differ in a detail not shown here. Equal entries are not always repeated.
# What was measured:
# [1] = tested on: yeast strains expressing the human α-synuclein; test: Yeast α-synuclein toxicity rescue assay (OD600 growth); conditions: 40 h; for EC50: read-out: α-Syn EC50; for Emax: read-out: α-Syn Emax
# From the text: The induced expression of α-synuclein and ApoE4 confers cytotoxicity, thus enabling the identification of compounds that can restore cell viability. This instantaneous/synchronous induction of α-synuclein and ApoE4 can be achieved due to the following expression control. In glucose-containing media, gene expression from the GAL1 promoter is ‘off’ and actively repressed by additional epigenetic factors. In raffinose, expression is ‘off’, but the promoter not actively repressed. Upon transition to galactose-containing media, the promoter is instantaneously turned ‘on’ to achieve robust and synchronous induction of α-synuclein or ApoE4 expression. This highly regulated induction provides a robust window for the determination of both efficacy (amplitude of protective effect) and potency (concentration of protective effect) of cytoprotective compounds.
# Re-suspended compound stocks were subsequently arrayed into 384 well compound plates using automated pipetting. All other wells not receiving stock compound were filled with 10 μL of 100% DMSO using an automated plate filler (Multidrop Combi). An 11 point, 2-fold serial dilution was then performed using the robotic platform. Compound assay plates were covered with foil and stored at −20° C. until use.
# Each strain was handled according to standard protocols and cultured in media composed of CSM (complete synthetic media), YNB (yeast nitrogenous base), and a 2% (w/v) carbon source (either glucose, raffinose, or galactose).
# In a standard yeast assay, a single-use aliquot of cells was thawed on ice and diluted into CSM/glucose (5 mL). Cultures were grown for 8 hours at 30° C. This pre-growth enables the yeast to exit the thaw and begin to grow without expressing aSyn or ApoE4. After 8 hours, cell density (OD600) was determined and cultures diluted to an OD600 of 0.01 in CSM/raffinose for an overnight culture phase at 30° C. During this period, the active glucose repression of the GAL1 promoter was relieved; however, expression of the α-Syn/ApoE4 genes were not yet induced. After ˜16 hours of growth, cultures attain an OD600 of 0.4-0.8 and were ready to apply to assay plates containing compound.
# Compound profiling assays were executed in clear-bottom 384 well plates. First, compound plates were thawed at room temperature for 45′, centrifuged at 1,000×g for 1 minute, and the foil removed. Clear 384 well assay plates were then filled with 15 μL of CSM/galactose. […] The pin tool was washed iteratively with both 50% DMSO and 100% ethanol between each assay plate. After delivering compound to each assay plate, the overnight CSM/raffinose aSyn or ApoE4 cultures were added at a 2X cell density (0.04 for aSyn and 0.08 for ApoE4) in CSM/galactose to achieve a final assay OD600 of 0.02 and 0.04 for aSyn and ApoE, respectively. The cultures (15 μL per well) were then dispensed to the compound -containing 384 well assay plates using an automated plate filler. Plates were incubated in a humidified 30° C. incubator for 40 or 24 hours for aSyn and ApoE4, respectively. The ODsoo of each assay plate was then read with a microplate reader (e.g., Perkin Elmer Envision).
# The efficacy and potency of compounds were calculated according to the following. Raw data (OD600 values) were first background corrected to account for OD600 contributed by the plate and media itself. The efficacy (percent above DMSO, herein referred to as “Emax”) was calculated according to the equation: (Experimental well−DMSO control well)/(DMSO control well)*100. […] Normalized dose-response data was fit with a logistic regression curve using Spotfire (TIBCO), or similar curve-fitting software package. EC50 values were then reported along with EMax to provide both efficacy and potency measures for each analog and enable further compound design.
# SCD1 = molecular target: T1, SCD1 (Homo sapiens, UniProt O00767); test: Growth inhibition of humanized yeast strain expressing SCD1 as sole desaturase; assay type: cell-based; conditions: humanized yeast strain expressing SCD1
# T1 construct: host or cells: S. cerevisiae ole1Δ strain (W303 pdr1Δ pdr3Δ background), plasmid pRS316 with TDH3 promoter and CYC1 terminator
# T1 sequence (O00767 1-359): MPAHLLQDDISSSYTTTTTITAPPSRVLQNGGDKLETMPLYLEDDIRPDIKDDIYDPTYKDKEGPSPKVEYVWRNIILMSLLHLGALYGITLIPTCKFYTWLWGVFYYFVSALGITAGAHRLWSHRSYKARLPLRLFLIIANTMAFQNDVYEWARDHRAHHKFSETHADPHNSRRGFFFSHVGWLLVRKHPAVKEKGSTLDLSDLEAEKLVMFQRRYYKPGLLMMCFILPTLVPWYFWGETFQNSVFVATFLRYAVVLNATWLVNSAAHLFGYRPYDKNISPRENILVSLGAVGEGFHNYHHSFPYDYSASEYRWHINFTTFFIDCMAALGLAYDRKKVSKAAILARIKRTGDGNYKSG
# Procedure, shortened: (§1)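 Measured by optical density at 600 nm, growth of desaturase-dependent yeast (OLE1 deleted; human SCD1, human SCD5 or yeast Ole1 supplied from plasmid) was scored after 24 h (Ole1) or 40 h (SCD1, SCD5) at 30° C. in galactose media lacking uracil with DMSO-delivered compound.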
# Ole1 = molecular target: T2, Ole1 (Saccharomyces cerevisiae, UniProt P21147); test: Growth inhibition of yeast strain expressing Ole1 as sole desaturase; assay type: cell-based; conditions: yeast strain expressing Ole1 as sole desaturase
# T2 construct: expressed in transfected cells; host or cells: S. cerevisiae ole1Δ strain (W303 pdr1Δ pdr3Δ background), plasmid pRS316 with TDH3 promoter and CYC1 terminator
# T2 sequence (P21147 1-510): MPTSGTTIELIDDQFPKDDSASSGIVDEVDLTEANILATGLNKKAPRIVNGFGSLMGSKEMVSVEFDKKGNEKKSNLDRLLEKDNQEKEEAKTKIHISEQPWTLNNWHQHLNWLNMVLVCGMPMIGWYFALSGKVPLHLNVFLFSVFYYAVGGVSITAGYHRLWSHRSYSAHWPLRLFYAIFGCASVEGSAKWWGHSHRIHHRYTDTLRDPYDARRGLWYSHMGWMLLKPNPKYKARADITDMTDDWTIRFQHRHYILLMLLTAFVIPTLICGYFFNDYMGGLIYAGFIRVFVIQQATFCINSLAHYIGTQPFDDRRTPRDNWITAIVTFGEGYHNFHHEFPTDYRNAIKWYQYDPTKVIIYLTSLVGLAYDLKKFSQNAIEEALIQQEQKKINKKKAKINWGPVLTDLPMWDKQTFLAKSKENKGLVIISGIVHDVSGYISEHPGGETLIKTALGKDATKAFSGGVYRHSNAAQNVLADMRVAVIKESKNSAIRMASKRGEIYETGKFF
# Procedure, shortened: as §1
# SCD5 = molecular target: T3, SCD5 (Homo sapiens, UniProt Q86SK9); test: Growth inhibition of humanized yeast strain expressing SCD5 as sole desaturase; assay type: cell-based; conditions: humanized yeast strain expressing SCD5
# T3 construct: host or cells: S. cerevisiae ole1Δ strain (W303 pdr1Δ pdr3Δ background), plasmid pRS316 with TDH3 promoter and CYC1 terminator
# T3 sequence (Q86SK9 1-330): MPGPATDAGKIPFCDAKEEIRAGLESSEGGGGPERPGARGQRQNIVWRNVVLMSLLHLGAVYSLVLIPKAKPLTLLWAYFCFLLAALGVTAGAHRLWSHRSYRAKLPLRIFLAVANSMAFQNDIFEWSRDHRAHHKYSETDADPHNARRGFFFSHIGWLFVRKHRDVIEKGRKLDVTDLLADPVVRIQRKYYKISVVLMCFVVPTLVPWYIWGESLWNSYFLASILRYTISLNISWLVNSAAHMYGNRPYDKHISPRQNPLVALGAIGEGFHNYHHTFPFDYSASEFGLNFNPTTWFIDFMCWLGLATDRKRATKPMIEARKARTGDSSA
# Procedure, shortened: as §1
SMILES,EC50 [1] [µM],Emax [1] [%],IC50 (SCD1) [µM],SCD1 % Max Inhibition (SCD1) [%],IC50 (Ole1) [µM],OLE1 % Max Inhibition (Ole1),IC50 (SCD5) [µM],SCD5 % Max Inhibition (SCD5)
CCN1C(=O)COc2cc(-c3noc(C4CCN(C(=O)CNC(=O)c5ccccc5)CC4)n3)ccc21 [Compound 111],0.339,289,> 45,76.39,> 45,38.26%,> 45,32.73%
CCOc1ccc(-c2noc(N3CCC(C(=O)N4CCOC(c5ccccc5)C4)CC3)n2)cc1OC (centres unmarked) [Compound 112],0.32,258,> 45,66.76,> 45,3.16%,> 45,21.21%
CCOc1ccc(-c2noc(N3CCC(C(=O)N4CCN(C)C(c5ccccc5)C4)CC3)n2)cc1OC (centres unmarked) [Compound 113],15.6,55,40.7,55.33,> 45,5.55%,> 45,27.28%
Cc1nn(C)c2cc(-c3noc(C4CCN(C(=O)CNC(=O)c5ccccc5)CC4)n3)ncc12 [Compound 114],17.3,373,> 45,74.54,> 45,90.17%,> 45,77.66%
Cc1nn(C)c2nc(-c3noc(C4CCN(C(=O)CNC(=O)c5ccccc5)CC4)n3)ccc12 [Compound 115],0.887,326,> 45,77.36,> 45,101.68%,> 45,77.85%
Cc1nn(C)c2nc(-c3noc(C4CCN(C(=O)C5CC(=O)N(c6ccccc6)C5)CC4)n3)ccc12 (centres unmarked) [Compound 116],9.04,345,> 45,71.12,> 45,12.75%,> 45,8.35%
Cc1nn(C)c2ccc(-c3noc(C4CCN(C(=O)N5CCCCC5)CC4)n3)cc12 [Compound 117],7.5,124,> 45,95.94,> 45,92.97%,36.1,54.63%
CCOc1cnc(-c2noc(C3CCN(C(=O)C4CC(=O)N(c5ccccc5)C4)CC3)n2)cc1OC (centres unmarked) [Compound 118],15.7,65,> 45,93.37,> 45,87.29%,27.5,32.21%
CCOc1ccc(-c2noc(C3CCN(C(=O)[C@H]4CC[C@H](c5ccccc5)N4)CC3)n2)cc1OC [Compound 119],20.9,61,> 45,86.22,> 45,111.86%,> 45,93.93%
Cc1nn(C)c2cc(-c3noc(C4CCN(C(=O)C5CC(=O)N(c6ccccc6)C5)CC4)n3)ncc12 (centres unmarked) [Compound 120],19.5,139,> 45,99.80,> 45,119.08%,> 45,96.39%
CCOc1cnc(-c2noc(C3CCN(C(=O)CNC(=O)c4ccccc4)CC3)n2)cc1OC [Compound 121],15.5,388,> 45,94.06,> 45,111.12%,> 45,98.38%
Cn1c(=O)n(C)c2cc(-c3noc(C4CCN(C(=O)CNC(=O)c5ccccc5)CC4)n3)ccc21 [Compound 122],0.139,414,> 45,92.73,> 45,109.89%,> 45,90.04%
Cn1c(=O)n(C)c2cc(-c3noc(C4CCN(C(=O)C5CC(=O)N(c6ccccc6)C5)CC4)n3)ccc21 (centres unmarked) [Compound 123],0.069,343,> 45,73.59,> 45,3.12%,> 45,9.69%
COc1ccc(CN2CC(C(=O)N3CCC(c4nc(-c5ccc6c(C)nn(C)c6c5)no4)CC3)CC2=O)c(OC)c1 (centres unmarked) [Compound 124],17.7,395,> 45,88.87,> 45,4.55%,> 45,96.23%
COc1ccc(-c2noc(C3CCN(C(=O)C4CC(=O)N(C5CCCCC5)C4)CC3)n2)cc1OC (centres unmarked) [Compound 125],16.7,200,> 45,77.68,> 45,92.36%,> 45,94.83%
COc1ccc(-c2noc(C3CCN(C(=O)c4ccc(C(C)C)cc4)CC3)n2)cc1OC [Compound 127],7.42,349,> 45,66.46,> 45,99.27%,> 45,88.59%
CCOc1ccc(-c2noc(C3CCN(C(=O)C(CO)N4Cc5ccccc5C4=O)CC3)n2)cc1OC (centres unmarked) [Compound 128],0.252,306,> 45,–,> 45,81.43% and 60.60%,> 45,1.89% and 3.32%
Cc1nn(C)c2cc(-c3noc(C4CCN(C(=O)C(CO)N5Cc6ccccc6C5=O)CC4)n3)ccc12 (centres unmarked) [Compound 129],0.047,360,> 45,75.60,> 45,3.25%,> 45,93.05%
CCOc1ncc(-c2noc(C3CCN(C(=O)C4CC(=O)N(c5ccccc5)C4)CC3)n2)cc1OC (centres unmarked) [Compound 130],1.44,328,> 45,97.82,> 45,2.75%,> 45,99.82%
CCOc1ncc(-c2noc(C3CCN(C(=O)CN4Cc5ccccc5C4=O)CC3)n2)cc1OC [Compound 131],0.167,352,> 45,96.48,25.8,39.81%,> 45,98.92%
CCOc1ncc(-c2noc(C3CCN(C(=O)CNC(=O)c4ccccc4)CC3)n2)cc1OC [Compound 132],1.01,253,> 45,115.10,> 45,7.45%,> 45,94.34%
